Experimental data from patent publication US20160238617A1, “[…] AND METHODS […] TO INNER EAR DISORDERS” (THE UNIVERSITY OF CONNECTICUT, priority 2015, published 2016).

Tests used:
[1] = test system: prestin; assay: serum prestin concentration in mice treated with cisplatin; assay type: in vivo; settings: same time course up to two weeks after exposure
Procedure: Although the hearing threshold measured by ABR was unaffected, prestin levels continued to change after exposure to cisplatin.
The ototoxin drug cisplatin (a commonly used chemotherapeutic agent) was administered and then functional assessment of hearing and measurement of prestin were carried out at several intervals up to two weeks after exposure. Hearing was assessed using a standard testing protocol called click-evoked auditory brainstem response (ABR) (FIG. 13).

[2] = test system: prestin; assay: serum prestin level in cisplatin-treated rats; assay type: in vivo; settings: 72 hours after treatment, compared to controls
Description: Rats are more vulnerable to ototoxic damage than mice.

N.N.[Cl][Pt][Cl] [cisplatin]
serum concentrations of prestin [1]: increasing | serum prestin level [2]: elevated
